The target of series [1] is Cannabinoid receptor 2 (Homo sapiens, UniProt P34972). Briefly: Displacement of [3H]CP-55940 from human recombinant CB2 receptor expressed in CHO cells. Type of series: cell-based. For orientation: Loss of bound radioactivity is the signal in a displacement assay; it reports binding, not function.
The target of series [2] is Cannabinoid receptor 1 (Homo sapiens, UniProt P21554). Briefly: biochemical. The series is classed as cell-based, CHO.
Series [3] can be described thus: Brain concentration in rat at 1 mg/kg, iv at 0.25 h. The series is classed as ADME, organism-based. Details: dose 1 mg/kg, route intravenous. To be noted: read-out: Activity.
The nature of series [4]: Brain concentration in rat at 1 mg/kg, iv at 1 h. Details: dose 1 mg/kg, route intravenous. Type of series: ADME, organism-based. To be noted: read-out: Activity.
The nature of series [5]: Volume of distribution at steady state in rat at 1 mg/kg, iv or 2 mg/kg, po. The series is classed as ADME, organism-based. To be noted: in vivo, read-out: Vdss.
Series [6] is described as follows: Half life in rat at 1 mg/kg, iv or 2 mg/kg, po. Type of series: ADME, organism-based. The note with it: in vivo.
Series [7] is described as follows: Oral bioavailability in rat at 1 mg/kg, iv or 2 mg/kg, po. Type of series: ADME, organism-based. The note with it: in vivo.
The nature of series [8]: Plasma clearance in rat at 1 mg/kg, iv or 2 mg/kg, po. The series is classed as ADME, organism-based.
The nature of series [9]: Cmax in rat at 1 mg/kg, iv or 2 mg/kg, po. The series is classed as ADME, organism-based. To be noted: in vivo.
The nature of series [10]: Plasma concentration in rat at 1 mg/kg, iv at 0.25 h. Type of series: ADME, organism-based. On the set-up: dose 1 mg/kg, route intravenous.
Series [11] is described as follows: Plasma concentration in rat at 1 mg/kg, iv at 1 h. The series is classed as ADME, organism-based. Details: dose 1 mg/kg, route intravenous.
The nature of series [12]: Plasma concentration in rat at 1 mg/kg, iv at 2 hrs. Type of series: ADME, organism-based. Details: dose 1 mg/kg, route intravenous.
The nature of series [13]: Brain concentration in rat at 1 mg/kg, iv at 2 hrs. Type of series: ADME, organism-based. The note with it: read-out: Activity. On the set-up: dose 1 mg/kg, route intravenous.
The nature of series [14]: Ratio of drug level in brain to plasma in rat at 1 mg/kg, iv at 0.25 h. Type of series: ADME, organism-based. On the set-up: dose 1 mg/kg, route intravenous.
The nature of series [15]: Ratio of drug level in brain to plasma in rat at 1 mg/kg, iv at 1 h. Details: dose 1 mg/kg, route intravenous. The series is classed as ADME, organism-based.
Series [16] in a line: Ratio of drug level in brain to plasma in rat at 1 mg/kg, iv at 2 hrs. Type of series: ADME, organism-based. Details: dose 1 mg/kg, route intravenous.
Series [17] has as its system Rattus norvegicus. Briefly: Inhibition of CP-55940-induced hypothermia in rat at 3 mg/kg, iv after 30 mins. The series is classed as functional. The note with it: 0.5 h.
In series [18] the target is Cannabinoid receptor 1 (Rattus norvegicus, UniProt P20272). The series can be described thus: Binding affinity at rat CB1 receptor.

Some results are limits rather than exact numbers.

Chain of Cannabinoid receptor 2 (P34972 whole entry): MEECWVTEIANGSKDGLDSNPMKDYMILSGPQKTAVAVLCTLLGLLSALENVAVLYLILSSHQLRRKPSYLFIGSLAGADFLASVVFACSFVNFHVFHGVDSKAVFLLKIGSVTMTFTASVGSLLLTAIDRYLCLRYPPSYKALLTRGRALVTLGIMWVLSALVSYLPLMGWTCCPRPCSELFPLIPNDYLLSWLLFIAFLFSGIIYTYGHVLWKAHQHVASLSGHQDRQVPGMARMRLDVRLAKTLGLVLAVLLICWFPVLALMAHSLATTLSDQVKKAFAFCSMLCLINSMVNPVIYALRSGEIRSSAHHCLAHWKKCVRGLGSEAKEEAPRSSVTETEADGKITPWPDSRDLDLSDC
Chain of Cannabinoid receptor 1 (Homo sapiens, UniProt P21554) (P21554 whole entry): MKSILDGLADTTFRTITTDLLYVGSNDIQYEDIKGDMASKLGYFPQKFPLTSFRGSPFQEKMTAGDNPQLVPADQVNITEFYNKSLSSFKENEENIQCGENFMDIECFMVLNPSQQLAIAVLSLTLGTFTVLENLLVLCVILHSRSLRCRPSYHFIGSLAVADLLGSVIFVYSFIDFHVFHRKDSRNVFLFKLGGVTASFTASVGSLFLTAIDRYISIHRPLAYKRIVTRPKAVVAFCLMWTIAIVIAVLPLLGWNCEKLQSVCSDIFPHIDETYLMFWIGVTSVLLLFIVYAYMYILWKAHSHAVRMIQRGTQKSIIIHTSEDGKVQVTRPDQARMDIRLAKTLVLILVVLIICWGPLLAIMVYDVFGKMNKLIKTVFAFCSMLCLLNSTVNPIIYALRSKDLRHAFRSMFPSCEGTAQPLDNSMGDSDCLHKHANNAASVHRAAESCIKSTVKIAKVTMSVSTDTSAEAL
Chain of Cannabinoid receptor 1 (Rattus norvegicus, UniProt P20272) (P20272 whole entry): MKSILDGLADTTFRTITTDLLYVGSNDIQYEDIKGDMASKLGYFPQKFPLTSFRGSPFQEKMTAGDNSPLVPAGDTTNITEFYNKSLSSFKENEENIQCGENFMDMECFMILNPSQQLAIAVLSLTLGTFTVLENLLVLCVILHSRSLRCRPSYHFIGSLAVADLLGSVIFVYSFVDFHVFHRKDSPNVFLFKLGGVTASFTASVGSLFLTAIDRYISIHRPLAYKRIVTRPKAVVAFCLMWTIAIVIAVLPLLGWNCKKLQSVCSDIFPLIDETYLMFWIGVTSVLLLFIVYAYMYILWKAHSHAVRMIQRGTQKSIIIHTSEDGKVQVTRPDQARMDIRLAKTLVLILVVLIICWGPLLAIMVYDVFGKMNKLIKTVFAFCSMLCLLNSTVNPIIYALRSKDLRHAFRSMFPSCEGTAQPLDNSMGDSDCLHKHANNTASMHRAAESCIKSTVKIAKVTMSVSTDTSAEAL

The IC50 is the midpoint of a concentration-inhibition curve. On to `C[C@H](NS(=O)(=O)c1cccc(Cl)c1Cl)[C@@H](Cc1ccc(Cl)cc1)c1cccc(C#N)c1`, for which the IC50 in [1] turned out to be 202 nM; in [2], 10.7 nM.
Take `C[C@@H]([C@@H](Cc1ccc(Cl)cc1)c1cccc(C#N)c1)N(C)S(C)(=O)=O`: the IC50 in series [1] and in series [2] was over 2000 nM throughout.
Take `C[C@H](NC(=O)c1cc(Cl)cc(Cl)c1)[C@@H](Cc1ccc(Cl)cc1)c1cccc(C#N)c1`: the figures for the IC50 in series [1] and in series [2] were 181 nM and 282 nM, respectively.
As to `CCCCS(=O)(=O)N[C@@H](C)[C@@H](Cc1ccc(Cl)cc1)c1cccc(C#N)c1`, the concentration for half-maximal inhibition (IC50) in series [1] came to 1440 nM; in series [2] it was 75.2 nM.
For the compound `C[C@H](NS(=O)(=O)C(C)(C)C)[C@@H](Cc1ccc(Cl)cc1)c1cccc(C#N)c1`, the IC50 is over 2000 nM in series [1] and 1680 nM in series [2].
In the same order, the values of `C[C@H](NC(=O)c1c(Cl)cccc1Cl)[C@@H](Cc1ccc(Cl)cc1)c1cccc(C#N)c1` are 945 nM and 37.2 nM.
On to `C[C@H](NC(=O)Cc1ccccc1)[C@@H](Cc1ccc(Cl)cc1)c1cccc(C#N)c1`, for which the 50% inhibitory concentration (IC50) in [1] is over 2000 nM; in [2] it was 44.1 nM.
As for `C[C@H](NS(=O)(=O)c1c(Cl)cccc1Cl)[C@@H](Cc1ccc(Cl)cc1)c1cccc(C#N)c1`, the half-maximal inhibitory concentration (IC50) in series [1] was 283 nM; in [2], 29.8 nM.
Turning to `C[C@H](NS(=O)(=O)c1cc(Cl)cc(Cl)c1)[C@@H](Cc1ccc(Cl)cc1)c1cccc(C#N)c1`, the IC50 in [1] is 998 nM; in [2], 11.4 nM.
For the compound `C[C@@H]([C@@H](Cc1ccc(Cl)cc1)c1cccc(C#N)c1)N(C)S(=O)(=O)c1cc(Cl)cc(Cl)c1`, the IC50 in [1] and in series [2] was over 2000 nM throughout.
With `C[C@H](NS(=O)(=O)c1ccccc1Cl)[C@@H](Cc1ccc(Cl)cc1)c1cccc(C#N)c1`, the IC50 in series [1] worked out at 668 nM; in [2], 12.3 nM.
In the same order, the values of `C[C@H](NS(=O)(=O)c1cc(C(F)(F)F)cc(C(F)(F)F)c1)[C@@H](Cc1ccc(Cl)cc1)c1cccc(C#N)c1` are 1760 nM and 3.2 nM.
In the same order, the values of `C[C@H](NS(=O)(=O)c1cc(F)cc(F)c1)[C@@H](Cc1ccc(Cl)cc1)c1cccc(C#N)c1` are 1080 nM and 5.1 nM.
For orientation: half-life means how long it takes for the measured level to halve. High values mean slow decline, low ones rapid decline. Usually bioavailability stands for dose-corrected exposure relative to a reference, in per cent. By Cmax is commonly meant the highest concentration seen after dosing. Broadly, the Kp is the ratio of the level in a tissue or fluid to that in plasma or blood. One may read the inhibition in vivo as the change of the read-out against control, counted positive when it falls. Lower therefore signals a response near the control. As for `C[C@H](NS(=O)(=O)c1cccc(-c2ccccc2)c1)[C@@H](Cc1ccc(Cl)cc1)c1cccc(C#N)c1`, the results for the concentration at 0.25 h in series [3] and in series [10] were 146 nM and 220 nM, respectively. Further, the concentration at 1 h in series [4] amounted to 92 nM; in series [11], 113 nM. In series [5], the Vd was found to be 6.9 L/kg. In series [6], the half-life is 8.4 h. Further, in [7], the bioavailability turned out to be 48%. For the same compound, in series [8], the clearance is 10.6 mL/min/kg. The IC50 in series [1] came to 394 nM; in series [2] it was 2.8 nM; in [18] it was 2.3 nM. In addition, the Cmax in [9] was found to be 343 nM. Besides, the concentration at 2 h in series [12] and in [13] was 54 nM throughout. Moreover, the Kp at 0.25 h in [14] is 0.66. The Kp at 1 h in [15] was determined as 0.82. In series [16], the Kp at 2 h was found to be 1. Testing at 3 mg/kg in [17] gave an inhibition in vivo of 48.9%.
As for `C[C@H](NS(=O)(=O)c1cccc(Cl)c1)[C@@H](Cc1ccc(Cl)cc1)c1cccc(C#N)c1`, the IC50 in series [1] came to 808 nM; in series [2], 13.9 nM.
Take `C[C@H](NS(=O)(=O)c1ccc(-c2ccccc2)cc1)[C@@H](Cc1ccc(Cl)cc1)c1cccc(C#N)c1`: the IC50 stood at 406 nM in series [1] and 23 nM in [2].
For `C[C@H](NS(=O)(=O)c1cccc2ccccc12)[C@@H](Cc1ccc(Cl)cc1)c1cccc(C#N)c1`, the IC50 in series [1] came to 1120 nM; in [2], 21.1 nM.
As for `C[C@H](NS(=O)(=O)c1ccc(Cl)cc1Cl)[C@@H](Cc1ccc(Cl)cc1)c1cccc(C#N)c1`, the IC50 in series [1] is 301 nM; in series [2], 7.1 nM.
In the case of `C[C@H](NS(=O)(=O)Cc1ccccc1)[C@@H](Cc1ccc(Cl)cc1)c1cccc(C#N)c1`, the results for the IC50 in series [1] and in series [2] were over 2000 nM and 20.9 nM, respectively.
With `C[C@H](NS(=O)(=O)Cc1ccccc1Cl)[C@@H](Cc1ccc(Cl)cc1)c1cccc(C#N)c1`, the IC50 in series [1] came out at 1920 nM; in series [2], 16 nM.
As for `C[C@H](NS(=O)(=O)Cc1ccc(Cl)cc1)[C@@H](Cc1ccc(Cl)cc1)c1cccc(C#N)c1`, the values for the IC50 in [1] and in series [2] were 1760 nM and 15.4 nM, respectively.
In the case of `C[C@H](NS(=O)(=O)CCc1ccccc1)[C@@H](Cc1ccc(Cl)cc1)c1cccc(C#N)c1`, the figures for the IC50 in [1] and in series [2] were 904 nM and 19.3 nM, respectively.
As for `C[C@H](NC(=O)CCc1ccccc1)[C@@H](Cc1ccc(Cl)cc1)c1cccc(C#N)c1`, the IC50 came out at 1370 nM in series [1] and 38.3 nM in [2].
As to `C[C@H](NS(=O)(=O)/C=C/c1ccccc1)[C@@H](Cc1ccc(Cl)cc1)c1cccc(C#N)c1`, the IC50 came to 1080 nM in series [1] and 41.8 nM in series [2].
Regarding `C[C@H](NC(=O)c1ccccc1)[C@@H](Cc1ccc(Cl)cc1)c1cccc(C#N)c1`, the IC50 in series [1] was found to be 1910 nM; in series [2], 845 nM.
The like results for `C[C@H](NS(=O)(=O)c1cc(Cl)ccc1Cl)[C@@H](Cc1ccc(Cl)cc1)c1cccc(C#N)c1` were, in that order, 498 nM and 7.4 nM.
In the case of `C[C@H](NS(=O)(=O)c1ccc2ccccc2c1)[C@@H](Cc1ccc(Cl)cc1)c1cccc(C#N)c1`, the figures for the IC50 in series [1] and in series [2] were 1090 nM and 15 nM, respectively.
`C[C@H](NS(=O)(=O)Cc1cccc(Cl)c1)[C@@H](Cc1ccc(Cl)cc1)c1cccc(C#N)c1`: the IC50 in series [1] was found to be 2000 nM; in [2] it was 53.5 nM.
`C[C@H](NS(=O)(=O)c1cc(Cl)c(Cl)cc1Cl)[C@@H](Cc1ccc(Cl)cc1)c1cccc(C#N)c1`: the IC50 in series [1] stood at 622 nM; in [2], 16 nM.
In the same order, the values of `C[C@H](NS(=O)(=O)c1ccccc1)[C@@H](Cc1ccc(Cl)cc1)c1cccc(C#N)c1` are 1490 nM and 9.7 nM.
Regarding `C[C@H](NS(=O)(=O)c1ccc(Cl)cc1)[C@@H](Cc1ccc(Cl)cc1)c1cccc(C#N)c1`, the IC50 in series [1] was found to be 454 nM; in series [2], 21.7 nM.
On to `C[C@H](NS(C)(=O)=O)[C@@H](Cc1ccc(Cl)cc1)c1cccc(C#N)c1`, for which the IC50 in series [1] and in series [2] was over 2000 nM in each case.
Turning to `Cc1c(C(=O)NN2CCCCC2)nn(-c2ccc(Cl)cc2Cl)c1-c1ccc(Cl)cc1` [RIMONABANT], the inhibition in vivo at 3 mg/kg in series [17] worked out at 97.9%.

(Values after ChEMBL document CHEMBL1144613, “Substituted acyclic sulfonamides as human cannabinoid-1 receptor inverse agonists” (Bioorg Med Chem Lett, 2007).)
